Results published in the supplement of paper PMC10307832.

Key:
Assay in all cases: relative viability (nuclei count vs DMSO), 5 days (fraction); higher = more cells survive
[1] = compound: CS(=O)(=O)c1ccc(-c2cnc(N)c(C(=O)Nc3ccccc3)n2)cc1 [VE-821] + COc1cccc2cc(-c3nc([C@H]4CC[C@H](C(=O)O)CC4)n4ncnc(N)c34)[nH]c12 [OSI-027] (partner 0.5 µM)
How it was run: (§1)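 Relative viability divides the nuclei count in treated wells by that in vehicle wells. Lung cancer cell lines were seeded in 1536-well plates, dosed by pin tool the next day, and fixed and stained after 5 days in one step with final 0.05% Triton X-100, 1% formaldehyde and 1 ug/ml Hoechst. Dosing was a single drug or a fixed anchor-drug dose plus five library-drug doses (not always all listed) in √10 steps, and values are medians of duplicate plates imaged at 4×.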

[2] = compound: CS(=O)(=O)c1ccc(-c2cnc(N)c(C(=O)Nc3ccccc3)n2)cc1 [VE-821] + Nc1ncn([C@H]2C[C@H](O)[C@@H](CO)O2)c(=O)n1 [Decitabine] (partner 2 µM)
How it was run: as §1

[3] = compound: CS(=O)(=O)c1ccc(C(=O)Nc2ccc(Cl)c(-c3ccccn3)c2)c(Cl)c1 [Vismodegib] + Nc1ncn([C@H]2C[C@H](O)[C@@H](CO)O2)c(=O)n1 [Decitabine] (partner 2 µM)
How it was run: as §1

[4] = compound: N#CC[C@H](C1CCCC1)n1cc(-c2ncnc3[nH]ccc23)cn1 [Ruxolitinib] + COc1cc2c(Oc3ccc(NC(=O)C4(C(=O)Nc5ccc(F)cc5)CC4)cc3F)ccnc2cc1OCCCN1CCOCC1 [Foretinib] (partner 0.25 µM)
How it was run: as §1

| Cell Line | relative viability ([1]; first compound 0.08 µM) | relative viability ([1]; first compound 0.253 µM) | relative viability ([1]; first compound 0.8 µM) | relative viability ([1]; first compound 2.53 µM) | relative viability ([1]; first compound 8 µM) | relative viability ([2]; first compound 0.08 µM) | relative viability ([2]; first compound 0.253 µM) | relative viability ([2]; first compound 0.8 µM) | relative viability ([2]; first compound 2.53 µM) | relative viability ([2]; first compound 8 µM) | relative viability ([3]; first compound 0.08 µM) | relative viability ([3]; first compound 0.253 µM) | relative viability ([3]; first compound 0.8 µM) | relative viability ([3]; first compound 2.53 µM) | relative viability ([3]; first compound 8 µM) | relative viability ([4]; first compound 0.08 µM) | relative viability ([4]; first compound 0.253 µM) | relative viability ([4]; first compound 0.8 µM) | relative viability ([4]; first compound 2.53 µM) | relative viability ([4]; first compound 8 µM) |
| --- | --- | --- | --- | --- | --- | --- | --- | --- | --- | --- | --- | --- | --- | --- | --- | --- | --- | --- | --- | --- |
| HCC-366 | 0.931 | 0.789 | 0.605 | 0.492 | 0.138 | 0.398 | 0.381 | 0.323 | 0.226 | 0.121 | 0.374 | 0.283 | 0.377 | 0.331 | 0.311 | 0.934 | 0.855 | 1.07 | 0.915 | 0.744 |
| HCC-827 | 0.845 | 0.865 | 0.886 | 0.838 | 0.683 | 0.347 | 0.344 | 0.357 | 0.352 | 0.357 | 0.326 | 0.333 | 0.34 | 0.302 | 0.353 | – | 0.764 | 0.755 | 0.918 | 0.811 |
| HOP-62 | 1.04 | 0.809 | 0.73 | 0.925 | 0.697 | 0.185 | 0.261 | 0.265 | 0.214 | 0.25 | 0.227 | 0.22 | 0.208 | 0.22 | 0.183 | 1.16 | 1.07 | 1.16 | 1.11 | 1.09 |
| IA-LM | – | – | – | – | – | – | – | – | – | – | – | – | – | – | – | 1.04 | 1.19 | 1.34 | 1.22 | 0.885 |
| LC-2-ad | 0.878 | 0.945 | 0.986 | 0.928 | 0.789 | 0.747 | 0.769 | 0.955 | 0.865 | 0.916 | 0.746 | 0.717 | 0.834 | 0.693 | 0.777 | – | 0.743 | 0.977 | 0.746 | 0.64 |
| LCLC-97TM1 | 0.564 | 0.506 | 0.669 | 0.786 | 0.668 | 0.266 | 0.278 | 0.239 | 0.251 | 0.178 | 0.214 | 0.25 | 0.351 | 0.229 | 0.223 | 0.848 | 0.753 | 0.826 | 0.834 | 0.889 |
| LCLC-103H | 0.478 | 0.478 | 0.404 | 0.468 | 0.365 | 0.749 | 0.702 | 0.778 | 0.77 | 0.729 | 0.74 | 0.755 | 0.768 | 0.726 | 0.735 | 0.808 | 0.672 | 0.881 | 0.71 | 0.661 |
| LK-2 | 0.194 | 0.203 | 0.245 | 0.221 | 0.176 | 0.323 | 0.338 | 0.415 | 0.384 | 0.256 | 0.356 | 0.253 | 0.282 | 0.283 | 0.28 | 1.15 | 1.45 | 1.46 | 1.29 | 1.34 |
| LOU-NH91 | 0.731 | 0.71 | 0.766 | 0.778 | 0.747 | 0.833 | 0.813 | 0.812 | 0.836 | 0.805 | 0.796 | 0.806 | 0.84 | 0.819 | 0.81 | – | 0.968 | 1.02 | 0.877 | 0.876 |
| LU99A | 0.298 | 0.304 | 0.292 | 0.257 | 0.244 | 1.01 | 0.763 | 0.881 | 0.801 | 0.395 | 0.944 | 0.844 | 0.887 | 0.835 | 0.781 | 0.882 | 0.858 | 0.787 | 0.69 | 0.641 |
| LXF-289 | 0.949 | 0.726 | 0.902 | 0.971 | 0.759 | 0.426 | 0.413 | 0.467 | 0.437 | 0.556 | 0.324 | 0.414 | 0.369 | 0.363 | 0.431 | 0.902 | 0.957 | 0.97 | 0.91 | 0.871 |
| NCI-H23 | 0.486 | 0.531 | 0.483 | 0.624 | 0.331 | 0.304 | 0.35 | 0.289 | 0.36 | 0.245 | 0.362 | 0.321 | 0.329 | 0.323 | 0.358 | 1.07 | 0.969 | 1 | 0.813 | 0.709 |
| NCI-H322M | 0.533 | 0.519 | 0.577 | 0.482 | 0.286 | 0.693 | 0.639 | 0.752 | 0.793 | 0.553 | 0.694 | 0.651 | 0.661 | 0.822 | 0.635 | 0.964 | 0.99 | 1.18 | 1.22 | 1.43 |
| NCI-H522 | 0.718 | 0.779 | 0.76 | 0.65 | 0.677 | 0.678 | 0.67 | 0.7 | 0.727 | 0.638 | 0.634 | 0.64 | 0.637 | 0.686 | 0.621 | – | – | – | – | – |
| NCI-H1299 | – | – | – | – | – | – | – | – | – | – | – | – | – | – | – | 1.09 | 1.1 | 1.05 | 0.982 | 0.853 |
| NCI-H1563 | 0.736 | 0.727 | 0.713 | 0.751 | 0.718 | – | – | – | – | – | – | – | – | – | – | 0.994 | 0.976 | 0.997 | 0.852 | 0.94 |
| NCI-H1623 | 0.48 | 0.489 | 0.543 | 0.454 | 0.379 | – | – | – | – | – | – | – | – | – | – | 0.908 | 0.94 | 0.971 | 1.01 | 0.994 |
| NCI-H1648 | 0.291 | 0.25 | 0.244 | 0.246 | 0.239 | 0.658 | – | 0.54 | 0.498 | 0.471 | 0.499 | 0.472 | 0.482 | 0.459 | 0.527 | – | – | – | – | – |
| NCI-H1703 | – | – | – | – | – | – | – | – | – | – | – | – | – | – | – | 0.298 | 0.338 | 0.376 | 0.329 | 0.287 |
| NCI-H1792 | 0.725 | 0.786 | 0.608 | 0.447 | 0.484 | 0.639 | 0.536 | 0.482 | 0.586 | 0.529 | 0.513 | 0.478 | 0.532 | 0.481 | 0.521 | – | – | – | – | – |
| NCI-H2228 | 0.636 | 0.459 | 0.628 | 0.695 | 0.2 | – | – | – | – | – | – | – | – | – | – | 0.86 | 0.911 | 0.794 | 0.717 | 0.429 |
